The text below walks through data of patent publication US11524960B2, “Heterobicyclic inhibitors of MAT2A and methods of use for treating cancer” (AGIOS PHARMACEUTICALS, INC., priority 2018, dated 2022).

One experiment addresses T1, MAT2A homodimer (Homo sapiens, UniProt P31153).
T1 construct: inferred from Ni sepharose purification and imidazole elution; made in house; host or cells: Sf9 insect cells, recombinant baculovirus (Bac to Bac, pFASTBAC1)
Description: Biochemical assay: inhibition of MAT2A (phosphate release, PiColorLock Gold). The conditions noted are these: MAT2A IC50 score; read-out: Enzyme Inhibition (Example 275). The procedure, abridged:
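Phosphate formed alongside SAM was read with PiColorLock Gold and quantified against a potassium phosphate standard curve. Reactions ran 60 min at 25 °C after adding a substrate mix of 500 μM ATP and 400 μM L-methionine (mix concentrations). Compound had first been preincubated 60 min with recombinant Sf9-derived MAT2A homodimer ([…]) in pH 8.0 Tris buffer containing MgCl2, KCl, EDTA and BSA.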

Experiment [1] deals with SAM in HCT116 human colon carcinoma cell line engineered to delete the MTAP gene (MTAP −/−). Description: Cellular assay of target engagement (SAM) by LC-MS/MS. To be noted: Homo sapiens, HCT-116, 72 h, IC50 score, read-out: Cell 72 h SAM Inhibition (MTAP −/−; Example 276). Type of experiment: cell-based. In outline: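 Intracellular SAM, the MAT2A product, was measured by quantitative LC-MS/MS against a d3-SAM standard in methanol/acetic acid extracts. Extracts came from HCT116 MTAP −/− cells exposed for 72 h at 37 °C to a ten-point, threefold dilution series of compound, added one day after seeding.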

In a further experiment the test system is HCT116 MTAP−/−. Description: Inhibition of cellular proliferation (Cell Titer Glo), HCT116 MTAP−/−. It counts as cell-based, human. To be noted: Homo sapiens, HCT-116, 96 h, 4 days, IC50 score, read-out: 4 Day Relative Growth Inhibition (MTAP −/−; Example 277). In outline: (§1)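 Proliferation was read as ATP luminescence (Cell Titer Glo) after a 4-day, 37 °C exposure of HCT116 cells differing only in MTAP deletion status. Dosing was 10 points, 3-fold steps, added 24 h post-plating; signal minus blank, relative to 0.2% DMSO control wells, was plotted against log molar concentration.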
On the technique in general: Cellular ATP, detected with luciferase, serves as a proxy for viable cell number.

The test system of another experiment is HCT116 MTAP+/+. Briefly: Inhibition of cellular proliferation (Cell Titer Glo), HCT116 MTAP+/+. It counts as cell-based, human. To be noted: Homo sapiens, HCT-116, 96 h, 4 days, IC50 score, read-out: 4 Day Relative Growth Inhibition (MTAP +/+; Example 277). The procedure, abridged:
as §1

The structures appear in SMILES notation. Bounds are passed on as bounds.

T1 sequence (P31153 whole entry): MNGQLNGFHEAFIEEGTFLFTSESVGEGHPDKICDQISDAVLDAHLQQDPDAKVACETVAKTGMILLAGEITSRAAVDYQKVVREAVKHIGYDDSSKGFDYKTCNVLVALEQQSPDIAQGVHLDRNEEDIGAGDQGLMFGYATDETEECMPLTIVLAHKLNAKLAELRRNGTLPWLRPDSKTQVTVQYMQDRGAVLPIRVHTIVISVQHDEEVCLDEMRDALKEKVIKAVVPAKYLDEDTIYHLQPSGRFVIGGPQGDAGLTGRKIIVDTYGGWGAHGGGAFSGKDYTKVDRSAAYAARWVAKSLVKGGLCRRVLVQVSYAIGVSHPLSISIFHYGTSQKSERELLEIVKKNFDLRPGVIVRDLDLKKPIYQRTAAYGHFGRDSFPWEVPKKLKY

On to `CCOc1ccc2cn(-c3ccc4nn(C)c(C)c4c3)c(=O)c(-c3ccc(Cl)cc3)c2n1` [Example 105-A], for which the IC50 is less than 100 nM on MAT2A homodimer, less than 100 nM in experiment [1], less than 100 nM with HCT116 MTAP−/− and 100 to 10000 nM in the experiment on HCT116 MTAP+/+.

`Cn1cnc2ccc(-n3cc4ccc(OCC(F)(F)F)nc4c(-c4ccc(C(F)(F)F)nc4)c3=O)cc21` [Example 128-A]: the IC50 at MAT2A homodimer was less than 100 nM; in experiment [1], less than 100 nM; in the experiment on HCT116 MTAP−/−, less than 100 nM; in the experiment on HCT116 MTAP+/+, 100 to 10000 nM.

As to `Cn1cc2cc(-n3cc4ccc(NCC(F)(F)F)nc4c(-c4ccc(OC(F)F)cc4)c3=O)ccc2n1` [Example 239, 8-(4-(difluoromethoxy)phenyl)-6-(2-methyl-2H-indazol-5-yl)-2-(2,2,2-trifluoroethylamino)-1,6-naphthyridin-7(6H)-one], the IC50 at MAT2A homodimer was less than 100 nM; in experiment [1] it was less than 100 nM; with HCT116 MTAP−/− it was less than 100 nM; in the experiment on HCT116 MTAP+/+, 100 to 10000 nM.

`CCOc1ccc2cn(-c3ccc4nn(C)cc4c3)c(=O)c(-c3ccc(OC(F)F)nc3)c2n1` [Example 218, 8-(6-(difluoromethoxy)pyridin-3-yl)-2-ethoxy-6-(2-methyl-2H-indazol-5-yl)-1,6-naphthyridin-7(6H)-one]: the IC50 on MAT2A homodimer is less than 100 nM; in experiment [1], less than 100 nM; in the experiment on HCT116 MTAP−/− it was less than 100 nM; in the experiment on HCT116 MTAP+/+ it was 100 to 10000 nM.

With `Cn1cc(-n2cc3cnc(NCC(F)(F)F)nc3c(-c3ccc(OC(F)F)cc3)c2=O)ccc1=O` [Example 155, 8-(4-(difluoromethoxy)phenyl)-6-(1-methyl-6-oxo-1,6-dihydropyridin-3-yl)-2-((2,2,2-trifluoroethyl)amino)pyrido[4,3-d]pyrimidin-7(6H)-one], the IC50 is less than 100 nM on MAT2A homodimer, 100 to 1000 nM in experiment [1], 100 to 10000 nM with HCT116 MTAP−/− and 100 to 10000 nM in the experiment with HCT116 MTAP+/+.

Regarding `CCOc1ccc2cn(-c3ccc4nnn(C)c4c3)c(=O)c(-c3ccc(OC(F)F)cc3)c2n1` [Example 252, 8-(4-(difluoromethoxy)phenyl)-2-ethoxy-6-(1-methyl-1H-benzo[d][1,2,3]triazol-6-yl)-1,6-naphthyridin-7(6H)-one], the IC50 on MAT2A homodimer was less than 100 nM; in experiment [1] it was less than 100 nM; in the experiment with HCT116 MTAP−/−, 100 to 10000 nM; in the experiment on HCT116 MTAP+/+, 100 to 10000 nM.

Consider `Cn1cc2cc(-n3cc4ccc(OCC(F)(F)F)nc4c(-c4ccc(OC(F)(F)F)nc4)c3=O)ccc2n1` [Example 131-A], for which the IC50 at MAT2A homodimer is less than 100 nM; in experiment [1] it was less than 100 nM; in the experiment with HCT116 MTAP−/−, 100 to 10000 nM; in the experiment with HCT116 MTAP+/+ it was 100 to 10000 nM.

As to `O=c1c(-c2ccc(Cl)cc2)c2nc(NCC(F)(F)F)ncc2cn1-c1ccc2ncsc2c1` [Example 129, 6-(benzo[d]thiazol-6-yl)-8-(4-chlorophenyl)-2-(2,2,2-trifluoroethylamino)pyrido[4,3-d]pyrimidin-7(6H)-one], the IC50 on MAT2A homodimer was less than 100 nM; in experiment [1] it was 100 to 1000 nM; in the experiment on HCT116 MTAP−/−, 100 to 10000 nM; with HCT116 MTAP+/+ it was more than 10000 nM.

In the case of `CCOc1ccc2cn(-c3ccc4ncn(C)c4c3)c(=O)c(-c3ccc(C(F)(F)F)nc3)c2n1` [Example 226, 2-ethoxy-6-(1-methyl-1H-benzo[d]imidazol-6-yl)-8-(6-(trifluoromethyl)pyridin-3-yl)-1,6-naphthyridin-7(6H)-one], the IC50 was less than 100 nM on MAT2A homodimer, less than 100 nM in experiment [1], less than 100 nM in the experiment with HCT116 MTAP−/− and 100 to 10000 nM with HCT116 MTAP+/+.

Regarding `Cn1cnc2ccc(-n3cc4ccc(NCC(F)(F)F)nc4c(-c4ccc(Cl)cc4)c3=O)cc21` [Example 234, 8-(4-chlorophenyl)-6-(1-methyl-1H-benzo[d]imidazol-6-yl)-2-(2,2,2-trifluoroethylamino)-1,6-naphthyridin-7(6H)-one], the IC50 at MAT2A homodimer was less than 100 nM; in experiment [1], less than 100 nM; in the experiment on HCT116 MTAP−/−, less than 100 nM; in the experiment on HCT116 MTAP+/+, more than 10000 nM.

On to `Cc1nc2ccc(-n3cc4cnc(NCC(F)(F)F)nc4c(-c4ccc(Cl)cc4)c3=O)cc2n1C` [Example 124, 8-(4-chlorophenyl)-6-(1,2-dimethyl-1H-benzo[d]imidazol-6-yl)-2-((2,2,2-trifluoroethyl)amino)pyrido[4,3-d]pyrimidin-7(6H)-one], for which the IC50 on MAT2A homodimer was less than 100 nM; in experiment [1] it was less than 100 nM; in the experiment with HCT116 MTAP−/−, less than 100 nM; in the experiment with HCT116 MTAP+/+, more than 10000 nM.

On to `Cn1cc2cc(-n3cc4ccc(NCC(F)(F)F)nc4c(-c4ccc(C5CC5)nc4)c3=O)ccc2n1` [Example 212, 8-(6-cyclopropylpyridin-3-yl)-6-(2-methyl-2H-indazol-5-yl)-2-((2,2,2-trifluoroethyl)amino)-1,6-naphthyridin-7(6H)-one], for which the IC50 on MAT2A homodimer was less than 100 nM; in experiment [1] it was less than 100 nM; in the experiment with HCT116 MTAP−/−, less than 100 nM; in the experiment on HCT116 MTAP+/+, more than 10000 nM.

Consider `Cn1cc2cc(-n3cc4ccc(NCC(F)(F)F)nc4c(-c4ccc(OC(F)(F)F)cc4)c3=O)ccc2n1` [Example 211, 6-(2-methyl-2H-indazol-5-yl)-2-((2,2,2-trifluoroethyl)amino)-8-(4-(trifluoromethoxy)phenyl)-1,6-naphthyridin-7(6H)-one], for which the IC50 was less than 100 nM at MAT2A homodimer, less than 100 nM in experiment [1], less than 100 nM in the experiment on HCT116 MTAP−/− and more than 10000 nM in the experiment on HCT116 MTAP+/+.

As for `COc1ccc(-n2cc3cnc(NCC(F)(F)F)nc3c(-c3ccc(C4CC4)cc3)c2=O)cc1` [Example 167, 8-(4-cyclopropylphenyl)-6-(4-methoxyphenyl)-2-((2,2,2-trifluoroethyl)amino)pyrido[4,3-d]pyrimidin-7(6)-one], the IC50 at MAT2A homodimer is less than 100 nM; in experiment [1], 100 to 1000 nM; with HCT116 MTAP−/−, 100 to 10000 nM; in the experiment on HCT116 MTAP+/+, more than 10000 nM.

Consider `Cn1cc2cc(-n3cc4cnc(NC5CC5)nc4c(-c4ccc(OC(F)F)cc4)c3=O)ccc2n1` [Example 172, 2-(cyclopropylamino)-8-(4-(difluoromethoxy)phenyl)-6-(2-methyl-2H-indazol-5-yl)pyrido[4,3-d]pyrimidin-7(6H)-one], for which the IC50 on MAT2A homodimer was less than 100 nM; in experiment [1], less than 100 nM; in the experiment with HCT116 MTAP−/−, less than 100 nM; in the experiment on HCT116 MTAP+/+, more than 10000 nM.

For `Cn1nnc2ccc(-n3cc4ccc(NCC(F)(F)F)nc4c(-c4ccc(Cl)cc4)c3=O)cc21` [Example 235, 8-(4-chlorophenyl)-6-(1-methyl-1H-benzo[d][1,2,3]triazol-6-yl)-2-(2,2,2-trifluoroethylamino)-1,6-naphthyridin-7(6H)-one], the IC50 at MAT2A homodimer was less than 100 nM; in experiment [1], less than 100 nM; with HCT116 MTAP−/−, less than 100 nM; in the experiment on HCT116 MTAP+/+, more than 10000 nM.

Consider `Cn1cc2cc(-n3cc4cnc(NCC(F)(F)F)nc4c(-c4ccc(C(F)(F)F)cc4)c3=O)ccc2n1` [Example 161, 6-(2-methyl-2H-indazol-5-yl)-2-((2,2,2-trifluoroethyl)amino)-8-(4-(trifluoromethyl)phenyl)pyrido[4,3-d]pyrimidin-7(6H)-one], for which the IC50 was less than 100 nM on MAT2A homodimer, less than 100 nM in experiment [1], less than 100 nM with HCT116 MTAP−/− and more than 10000 nM with HCT116 MTAP+/+.

For `Cn1cc2cc(-n3cc4ccc(NCC(F)(F)F)nc4c(-c4ccc(C(F)(F)F)cc4)c3=O)ccc2n1` [Example 213, 6-(2-methyl-2H-indazol-5-yl)-2-((2,2,2-trifluoroethyl)amino)-8-(4-(trifluoromethyl)phenyl)-1,6-naphthyridin-7(6H)-one], the IC50 at MAT2A homodimer was less than 100 nM; in experiment [1], less than 100 nM; in the experiment with HCT116 MTAP−/−, less than 100 nM; in the experiment on HCT116 MTAP+/+, more than 10000 nM.
